According to patent publication US6525001B1, “Substituted pyrimidine and pyridine herbicides” (Mid-American Commercialization Corporation, priority 1997, dated 2003):

Key:
Assay in all cases: Test B pre-/postemergence
Type in all cases: in vivo
Set-up in all cases: key: 0 is no effect; 10 is complete control
[1] = tested on: giant foxtail (Setaria faberii)
Procedure, shortened: (§1)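 Seeds were planted and sprayed preemergence, while plants at 2 to 18 cm (1- to 4-leaf stage) were sprayed postemergence at the same time, with test chemical in a non-phytotoxic solvent mixture containing surfactant. After twelve to sixteen days in a greenhouse, injury was rated visually against untreated controls on a 0–10 scale.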

[2] = tested on: velvetleaf (Abutilon theophrasti)
Procedure, shortened: as §1

corn (Zea mays) = tested on: corn (Zea mays)
Procedure, shortened: as §1

[3] = tested on: blackgrass (Alopecurus myosuroides)
Procedure, shortened: as §1

[4] = tested on: momingglory (Ipomoea hederacea)
Procedure, shortened: as §1

[5] = tested on: sugar beet (Beta vulgaris)
Procedure, shortened: as §1

[6] = tested on: bedstraw (Galium aparine)
Procedure, shortened: as §1

[7] = tested on: broadleaf signalgrass (Brachiaria decumbens)
Procedure, shortened: as §1

[8] = tested on: purple nutsedge (Cyperus rotundus)
Procedure, shortened: as §1

[9] = tested on: wheat (Triticum aestivum)
Procedure, shortened: as §1

[10] = tested on: crabgrass (Digitaria sanguinalis)
Procedure, shortened: as §1

[11] = tested on: pigweed (Amaranthus retroflexus)
Procedure, shortened: as §1

[12] = tested on: cocklebur (Xanthium strumarium)
Procedure, shortened: as §1

wild oat (Avena fatua) = tested on: wild oat (Avena fatua)
Procedure, shortened: as §1

Cc1cnc(-c2ccc(C(F)(F)F)cc2)nc1C(Cl)c1cccc(C(F)(F)F)c1 (racemic) [Compound 21]
Plant response rating, Giant foxtail ([1]; Rate 62 g/ha, Postemergence): 1 | Giant foxtail plant response rating ([1]; Rate 62 g/ha, Preemergence): 5 | Plant response rating, Giant foxtail ([1]; Rate 125 g/ha, Postemergence): 8 | Giant foxtail plant response rating ([1]; Rate 125 g/ha, Preemergence): 8 | Plant response rating, Giant foxtail ([1]; Rate 250 g/ha, Postemergence): 9 | Plant response rating, Giant foxtail ([1]; Rate 250 g/ha, Preemergence): 9 | Plant response rating, Velvetleaf ([2]; Rate 62 g/ha, Postemergence): 7 | Velvetleaf plant response rating ([2]; Rate 62 g/ha, Preemergence): 4 | Plant response rating, Velvetleaf ([2]; Rate 125 g/ha, Postemergence): 8 | Velvetleaf plant response rating ([2]; Rate 125 g/ha, Preemergence): 8 | Plant response rating, Velvetleaf ([2]; Rate 250 g/ha, Postemergence): 9 | Plant response rating, Velvetleaf ([2]; Rate 250 g/ha, Preemergence): 10 | Plant response rating, Corn (corn (Zea mays); Rate 62 g/ha, Postemergence): 3 | Corn plant response rating (corn (Zea mays); Rate 62 g/ha, Preemergence): 0 | Plant response rating, Corn (corn (Zea mays); Rate 125 g/ha, Postemergence): 3 | Corn plant response rating (corn (Zea mays); Rate 125 g/ha, Preemergence): 0 | Plant response rating, Corn (corn (Zea mays); Rate 250 g/ha, Postemergence): 4 | Plant response rating, Corn (corn (Zea mays); Rate 250 g/ha, Preemergence): 1 | Plant response rating, Blackgrass ([3]; Rate 62 g/ha, Postemergence): 3 | Blackgrass plant response rating ([3]; Rate 62 g/ha, Preemergence): 1 | Plant response rating, Blackgrass ([3]; Rate 125 g/ha, Postemergence): 4 | Blackgrass plant response rating ([3]; Rate 125 g/ha, Preemergence): 3 | Plant response rating, Blackgrass ([3]; Rate 250 g/ha, Postemergence): 6 | Plant response rating, Blackgrass ([3]; Rate 250 g/ha, Preemergence): 5 | Plant response rating, Morningglory ([4]; Rate 62 g/ha, Postemergence): 8 | Morningglory plant response rating ([4]; Rate 62 g/ha, Preemergence): 1 | Plant response rating, Morningglory ([4]; Rate 125 g/ha, Postemergence): 8 | Morningglory plant response rating ([4]; Rate 125 g/ha, Preemergence): 1 | Plant response rating, Morningglory ([4]; Rate 250 g/ha, Postemergence): 9 | Plant response rating, Morningglory ([4]; Rate 250 g/ha, Preemergence): 6 | Plant response rating, Sugarbeets ([5]; Rate 62 g/ha, Postemergence): 9 | Sugarbeets plant response rating ([5]; Rate 62 g/ha, Preemergence): 7 | Plant response rating, Sugarbeets ([5]; Rate 125 g/ha, Postemergence): 9 | Sugarbeets plant response rating ([5]; Rate 125 g/ha, Preemergence): 8 | Plant response rating, Sugarbeets ([5]; Rate 250 g/ha, Postemergence): 10 | Plant response rating, Sugarbeets ([5]; Rate 250 g/ha, Preemergence): 10 | Plant response rating, Bedstraw ([6]; Rate 62 g/ha, Postemergence): 5 | Bedstraw plant response rating ([6]; Rate 62 g/ha, Preemergence): 0 | Plant response rating, Bedstraw ([6]; Rate 125 g/ha, Postemergence): 9 | Bedstraw plant response rating ([6]; Rate 125 g/ha, Preemergence): 1 | Plant response rating, Bedstraw ([6]; Rate 250 g/ha, Postemergence): 9 | Plant response rating, Bedstraw ([6]; Rate 250 g/ha, Preemergence): 8 | Plant response rating, B. signalgrass ([7]; Rate 62 g/ha, Postemergence): 3 | B. signalgrass plant response rating ([7]; Rate 62 g/ha, Preemergence): 2 | Plant response rating, B. signalgrass ([7]; Rate 125 g/ha, Postemergence): 4 | B. signalgrass plant response rating ([7]; Rate 125 g/ha, Preemergence): 3 | Plant response rating, B. signalgrass ([7]; Rate 250 g/ha, Postemergence): 7 | Plant response rating, B. signalgrass ([7]; Rate 250 g/ha, Preemergence): 8 | Plant response rating, Nutsedge ([8]; Rate 62 g/ha, Postemergence): 2 | Nutsedge plant response rating ([8]; Rate 62 g/ha, Preemergence): 0 | Plant response rating, Nutsedge ([8]; Rate 125 g/ha, Postemergence): 2 | Nutsedge plant response rating ([8]; Rate 125 g/ha, Preemergence): 0 | Plant response rating, Nutsedge ([8]; Rate 250 g/ha, Postemergence): 3 | Plant response rating, Nutsedge ([8]; Rate 250 g/ha, Preemergence): 0 | Plant response rating, Wheat ([9]; Rate 62 g/ha, Postemergence): 4 | Wheat plant response rating ([9]; Rate 62 g/ha, Preemergence): 0 | Plant response rating, Wheat ([9]; Rate 125 g/ha, Postemergence): 4 | Wheat plant response rating ([9]; Rate 125 g/ha, Preemergence): 0 | Plant response rating, Wheat ([9]; Rate 250 g/ha, Postemergence): 5 | Plant response rating, Wheat ([9]; Rate 250 g/ha, Preemergence): 2 | Plant response rating, Crabgrass ([10]; Rate 62 g/ha, Postemergence): 3 | Crabgrass plant response rating ([10]; Rate 62 g/ha, Preemergence): 3 | Plant response rating, Crabgrass ([10]; Rate 125 g/ha, Postemergence): 6 | Crabgrass plant response rating ([10]; Rate 125 g/ha, Preemergence): 6 | Plant response rating, Crabgrass ([10]; Rate 250 g/ha, Postemergence): 8 | Plant response rating, Crabgrass ([10]; Rate 250 g/ha, Preemergence): 10 | Plant response rating, Redroot pigweed ([11]; Rate 62 g/ha, Postemergence): 8 | Redroot pigweed plant response rating ([11]; Rate 62 g/ha, Preemergence): 7 | Plant response rating, Redroot pigweed ([11]; Rate 125 g/ha, Postemergence): 9 | Redroot pigweed plant response rating ([11]; Rate 125 g/ha, Preemergence): 8 | Plant response rating, Redroot pigweed ([11]; Rate 250 g/ha, Postemergence): 10 | Plant response rating, Redroot pigweed ([11]; Rate 250 g/ha, Preemergence): 9 | Plant response rating, Cocklebur ([12]; Rate 62 g/ha, Postemergence): 7 | Cocklebur plant response rating ([12]; Rate 62 g/ha, Preemergence): 0 | Plant response rating, Cocklebur ([12]; Rate 125 g/ha, Postemergence): 8 | Cocklebur plant response rating ([12]; Rate 125 g/ha, Preemergence): 0 | Plant response rating, Cocklebur ([12]; Rate 250 g/ha, Postemergence): 8 | Plant response rating, Cocklebur ([12]; Rate 250 g/ha, Preemergence): 0 | Plant response rating, Wild oats (wild oat (Avena fatua); Rate 62 g/ha, Postemergence): 4 | Wild oats plant response rating (wild oat (Avena fatua); Rate 62 g/ha, Preemergence): 4 | Plant response rating, Wild oats (wild oat (Avena fatua); Rate 125 g/ha, Postemergence): 5 | Wild oats plant response rating (wild oat (Avena fatua); Rate 125 g/ha, Preemergence): 5 | Plant response rating, Wild oats (wild oat (Avena fatua); Rate 250 g/ha, Postemergence): 6 | Plant response rating, Wild oats (wild oat (Avena fatua); Rate 250 g/ha, Preemergence): 8
